According to patent US5182295A, “Insecticidal benzofuran derivatives” (Roussel Uclaf, priority 1990, dated 1993):
In brackets after ≈: the same amount, converted by molar mass. Read-outs that look alike come from different tables or passages of the source.

What was measured:
Type in all cases: in vivo
Tetranychus Urticae = assay: Acaricide study on Tetranychus Urticae; conditions: 72 h, read-out: LC50, Tetranychus
Description: Bean plants were used comprising 2 leaves infested with 30 females of Tetranychus Urticae per leaf and put under an aerated hood under a lighted ceiling which was constantly on. The plants were treated with a Fisher gun with 4 ml of toxic solution per plant of a mixture with an equal volume of water and acetone. After leaving to dry for half an hour the infestation was proceeded with and mortality checks were carried out at the end of 3 days. The LC50 dose was determined and the results are set out in the table below, taking account of the following values: […]

Musca Domestica (Fly) = assay: Insecticide activity: lethal effect on Musca Domestica (topical application); conditions: 6-day-old female flies, topical application of acetone solution on dorsal thorax, 22° C.
Description: 6-day-old female flies weighing 18 to 20 mg were used and the operation was carried out at 22° C. at relative humidity conditions of 50%. The products were administered by topical application of an acetone solution of 1 g/l on the dorsal thorax of the insects. The LC50 dose was determined and was expressed in ppm.

Aphis Cracivora = assay: Insecticide activity: activity on Aphis Cracivora; conditions: female apter on sprayed broad bean leaves, 24 hours
Description: 2 ml of water acetone solution (50/50) was sprayed on broad bean leaves (vicia fabae) until the leaves were running with solution. After drying, 15 female apter of Aphis cracivora were deposited on the leaves and the mixture was kept on the damp filter paper inside a Petri dish. 24 hours after the start of contact, the number of dead insects was determined and the LC50 dose expressed in ppm were determined.

[1] = test system: Spodoptera Littoralis (L3 stage larvae); assay: whole plant or invertebrate; conditions: 168 h, read-out: LC50, Spodoptera
Description: L3 stage SPODOPTERA LITTORALIS larvae were used and the operation was carried out at 22° C. at relative humidity conditions of 50%. Petri dishes were used containing a damp circular piece of filter paper and in each dish, two bean plant leaves were placed and treated with hydroacetonic solution (50-50) containing the product under test. The dead larvae were counted at the end of 7 days and the concentration LC50 were expressed in ppm.

Plasmopara viticola = assay: Fungicide activity: tests on Plasmopara viticola (vine plants, leaf spray); conditions: 100 ppm of active material, relative to non-treated control; for % of effectiveness on plasmopara viticola, Grenache vine: ten days after contamination
Description: Young vine plants from cuttings (Grenache N variety, clone 70) were cultivated in a greenhouse (daytime temperature: 30° C., night-time temperature: 25° C.) on an earth/compost/sand mixture, (1/3-1/3-1/3). Two days before the test, the plants were moved into a culture chamber with the same temperature conditions and humidity 60% in the day, 80% at night. The product was dissolved in "matrix A" at a concentration of 100 ppm just before use. The treatment took place by spraying the solution on the leaves until saturation Contamination was carried out with a suspension of zoospores of Plasmopara viticola taken immediately before the test using 50,000 zoospores per ml. Drops of suspension (20 micro-liters) were deposited on the abaxial surface of the leaves. The plants were then kept for 24 hours in an atmosphere saturated with water-vapour. Then, the atmosphere was returned to the humidity of the culture chamber (60% in the day, 80% at night). The reading was taken ten days after contamination by measuring the development of clusters of sporangiophores on the abaxial surface of the leaves. The effectiveness of the product was calculated relative to a non-treated control. The same type of test was carried out on a Chardonnay vine.
The results obtained in % of effectiveness on plasmopara viticola at 100 ppm of active material were as follows: […]

[2] = females on treated bean plants, 3 days
[3] = L3 larvae, contact and ingestion, treated bean leaves, 7 days, 22° C.

Structure (SMILES): CO/C=C(/C(=O)OC)c1cccc2cc(-c3csc(C(C)C)n3)oc12 [16 (E), Methyl α-(E)methoxymethylene1-7-[2-[4-(2-isopropylthiazolyl)-benzofuranyl]-acetate]
- LC50 (Tetranychus Urticae; [2]): < 250 µg/mL

Structure (SMILES): CO/C=C(/C(=O)OC)c1cccc2cc(-c3ccc(Cl)c(OC)c3)oc12 [15 (E)]
- LC50 (Musca Domestica (Fly)): < 250 µg/mL
- LC50 (Aphis Cracivora): < 250 µg/mL
- LC50 [1, 3]: 250 to 1000 µg/mL (≈ 671 to 2680 µM)
- LC50 (Tetranychus Urticae; [2]): 250 to 1000 µg/mL (≈ 671 to 2680 µM)

Structure (SMILES): CO/C=C(/C(=O)OC)c1cccc2cc(-c3cccc(Oc4ccccc4)c3)oc12 [24 (E), Methyl α-[(E)-methoxymethylene]-2-(3-phenoxyphenyl) -7-benzofuran acetate]
- LC50 (Musca Domestica (Fly)): < 250 µg/mL

Structure (SMILES): CO/C=C(/C(=O)OC)c1cccc2cc(-c3ccc(Cl)cc3)oc12 [12 (E)]
- LC50 (Musca Domestica (Fly)): < 250 µg/mL
- % of effectiveness on plasmopara viticola, Chardonnay vine (Plasmopara viticola): 100%
- % of effectiveness on plasmopara viticola, Grenache vine (Plasmopara viticola): 100%
- LC50 (Tetranychus Urticae; [2]): < 250 µg/mL

Structure (SMILES): CO/C=C(/C(=O)OC)c1cccc2cc(-c3cccc(OC)c3)oc12 [2 (E)]
- % of effectiveness on plasmopara viticola, Chardonnay vine (Plasmopara viticola): 100%
- % of effectiveness on plasmopara viticola, Grenache vine (Plasmopara viticola): 100%

Structure (SMILES): CCCCc1cc2cccc(/C(=C\OC)C(=O)OC)c2o1 [18 (E), Methyl α[(E)-methoxymethylene1-2-butyl-7-benzofuran acetate]
- LC50 (Aphis Cracivora): < 250 µg/mL
- LC50 (Tetranychus Urticae; [2]): < 250 µg/mL

Structure (SMILES): CO/C=C(/C(=O)OC)c1cccc2cc(-c3ccccc3)oc12 [3 (E)]
- LC50 [1, 3]: 250 to 1000 µg/mL (≈ 811 to 3240 µM)

Structure (SMILES): CO/C=C(/C(=O)OC)c1cccc2cc(-c3ccc(OC)cc3)oc12 [Example 1 (E), Methyl α-[(E)-methoxymethylene]-2-(4-methoxy-phenyl)-7-benzofuranacetate]
- % of effectiveness on plasmopara viticola, Grenache vine (Plasmopara viticola): 90%
- LC50 [1]: 250 to 1000 µg/mL (≈ 739 to 2960 µM)
- LC50 (Tetranychus Urticae): < 250 µg/mL

Structure (SMILES): CO/C=C(/C(=O)OC)c1cccc2cc(-c3ccc4c(c3)OCO4)oc12 [17 (E), Methyl α[(E)-methoxymethylene1-2-(3,4-methylenedioxy)-phenyl-7-benzofuran acetate]
- LC50 (Musca Domestica (Fly)): < 250 µg/mL
- LC50 [1, 3]: < 250 µg/mL

Structure (SMILES): CO/C=C(\C(=O)OC)c1cccc2cc(-c3ccccc3)oc12 [3 (Z)]
- LC50 [1, 3]: 250 to 1000 µg/mL (≈ 811 to 3240 µM)

Structure (SMILES): CO/C=C(/C(=O)OC)c1cccc2cc(-c3ccccc3Cl)oc12 [10 (E)]
- % of effectiveness on plasmopara viticola, Chardonnay vine (Plasmopara viticola): 90%
- % of effectiveness on plasmopara viticola, Grenache vine (Plasmopara viticola): 100%

Structure (SMILES): CO/C=C(/C(=O)OC)c1cccc2cc(-c3cccc(Cl)c3)oc12 [Example 11 (E)]
- % of effectiveness on plasmopara viticola, Chardonnay vine (Plasmopara viticola): 100%
- % of effectiveness on plasmopara viticola, Grenache vine (Plasmopara viticola): 100%
- LC50 [1, 3]: 250 to 1000 µg/mL (≈ 729 to 2920 µM)

Structure (SMILES): CO/C=C(/C(=O)OC)c1cccc2cc(-c3ccc(Oc4ccccc4)cc3)oc12 [25 (E), Methyl α-[(E)-methoxymethylene]-2-(4-phenoxyphenyl) -7-benzofuran acetate]
- LC50 (Musca Domestica (Fly)): < 250 µg/mL

Structure (SMILES): CO/C=C(/C(=O)OC)c1cccc2cc(-c3csc(-c4ccc(OC(F)(F)F)cc4)n3)oc12 [19 (E), Methyl α[(E)-methoxymethylene]-2-[2-[4-(trifluoromethyxy)-pehny]-4-thiazolyl]-7-benzofuran acette]
- LC50 [1, 3]: < 250 µg/mL

Structure (SMILES): CO/C=C(/C(=O)OC)c1cccc2cc(-c3ccc(Br)c(C(F)(F)F)c3)oc12 [14 (E), Methyl α[(E)methoxymethylene1-2-4-bromo-3-(trifluoromethyl)-phenyl]benzofuran acetate]
- LC50 (Musca Domestica (Fly)): < 250 µg/mL
- LC50 [1, 3]: 250 to 1000 µg/mL
- LC50 (Tetranychus Urticae; [2]): < 250 µg/mL

Structure (SMILES): CO/C=C(\C(=O)OC)c1cccc2cc(-c3ccc(OC)cc3)oc12 [1 (Z)]
- % of effectiveness on plasmopara viticola, Grenache vine (Plasmopara viticola): 100%
- LC50 [1, 3]: 250 to 1000 µg/mL (≈ 739 to 2960 µM)
- LC50 (Tetranychus Urticae; [2]): < 250 µg/mL
